From patent US20240287138A1, “CYCLIC PEPTIDES FOR INHIBITING TNF RECEPTOR 1 ACTIVITY” (Merck Sharp & Dohme LLC, priority 2023, published 2024)
pIC50, pKd: −log10 of the molar value. Where two headings read alike, the source gives them in different places. Numbered stars: 1 amine (or outer) side, 2 acyl side, 3 side chain; on linkers, the order of the positions; unused ones are H or OH. Bridge positions count the residues as written; N and C are the ends. Square brackets hold non-standard residues; d marks the D form. Peptide text beside a SMILES is read from it. Trp(βS-Me,7-OMe) = COc1cccc2c([C@H](C)[C@H](N)C(=O)O)c[nH]c12; Trp(βS-Me) = C[C@@H](c1c[nH]c2ccccc12)[C@H](N)C(=O)O; Trp(7-CN) = N#Cc1cccc2c(C[C@H](N)C(=O)O)c[nH]c12; Trp(7-Cl) = N[C@@H](Cc1c[nH]c2c(Cl)cccc12)C(=O)O; Phe(3-CONH2) = NC(=O)c1cccc(C[C@H](N)C(=O)O)c1; Phe(4-CONH2) = NC(=O)c1ccc(C[C@H](N)C(=O)O)cc1; Phe(4-COOH) = N[C@@H](Cc1ccc(C(=O)O)cc1)C(=O)O; Trp(7-aza) = N[C@@H](Cc1c[nH]c2ncccc12)C(=O)O; Phe(4-CH2NH2) = NCc1ccc(C[C@H](N)C(=O)O)cc1; Pip(5R-OH) = O=C(O)[C@@H]1CC[C@@H](O)CN1; X1 = O=C([C@@H]1CC[C@H](N[*:1])C1)[*:2]; 2Nal = N[C@@H](Cc1ccc2ccccc2c1)C(=O)O; Pip(4-aza) = O=C(O)[C@@H]1CNCCN1; 4Pal = N[C@@H](Cc1ccncc1)C(=O)O; NMeE = CN[C@@H](CCC(=O)O)C(=O)O; dHyp = O=C(O)[C@H]1C[C@H](O)CN1; Cit = NC(=O)NCCC[C@H](N)C(=O)O; Pip = O=C(O)[C@@H]1CCCCN1; αMeS = C[C@](N)(CO)C(=O)O; Nle = CCCC[C@H](N)C(=O)O; Sar = CNCC(=O)O

Experiments:
[1] = target: T1, TNFα-induced NF-κB signal transduction pathway (TNFR1 signaling) in THP-1 cells (Homo sapiens, UniProt P19438); assay: THP-1 Lucia NF-κB reporter cell assay, inhibition of TNFα-induced NF-κB signaling; type: cell-based; conditions: THP-1 NF-κB Lucia reporter cells, 10 ng/mL TNFα, 16-18 h, secreted luciferase; read-out: THP-1 IC50
T1 sequence (P19438 30-455): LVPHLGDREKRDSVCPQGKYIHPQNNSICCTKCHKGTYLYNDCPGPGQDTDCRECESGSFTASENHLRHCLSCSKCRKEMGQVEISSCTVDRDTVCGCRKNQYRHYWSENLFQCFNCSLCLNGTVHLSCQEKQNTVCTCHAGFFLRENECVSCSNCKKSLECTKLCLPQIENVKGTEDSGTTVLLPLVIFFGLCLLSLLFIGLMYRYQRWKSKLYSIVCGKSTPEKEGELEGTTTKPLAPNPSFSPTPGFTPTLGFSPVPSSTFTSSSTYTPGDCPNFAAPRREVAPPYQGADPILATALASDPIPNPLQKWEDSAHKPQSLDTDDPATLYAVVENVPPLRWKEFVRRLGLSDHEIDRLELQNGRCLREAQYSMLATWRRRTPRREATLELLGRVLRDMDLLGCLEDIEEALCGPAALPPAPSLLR
How it was run: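 Read-out: secreted Lucia luciferase luminescence (QUANTI-Luc) from supernatant after 16-18 h, 37 °C, 10 ng/mL rhTNFα. Peptide pretreatment 1 h at 37 °C; 20,000 cells/well, selection antibiotics omitted. IC50 via 4-parameter logistic model against min/max controls.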

[2] = target: T2, human soluble TNFR1 (sTNFR1) (Homo sapiens, UniProt P19438); assay: Human sTNFR1-peptide displacement assay (LanthaScreen Eu TR-FRET binding assay)
T2 construct: made in house; host or cells: Sf21 (baculovirus)
T2 sequence (P19438 with tags, fused parts or gaps): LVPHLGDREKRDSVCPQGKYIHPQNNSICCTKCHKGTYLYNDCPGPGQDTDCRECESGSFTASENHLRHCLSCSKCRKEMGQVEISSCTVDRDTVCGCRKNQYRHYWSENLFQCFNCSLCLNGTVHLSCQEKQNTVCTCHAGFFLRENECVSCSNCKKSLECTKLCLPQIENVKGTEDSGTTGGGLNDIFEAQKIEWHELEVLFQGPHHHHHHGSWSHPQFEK
How it was run: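 Readout is the 665/615 nm TR-FRET ratio (Eu anti-His donor, streptavidin-Alexa647 acceptor), normalized to DMSO and saturating displacer, fit by Morrison-based five-parameter logistic for Kd^app. His-tagged sTNFR1 (1-211) prebound to 100 nM biotinylated peptide SEQ ID NO.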

[3] = displacement of biotinylated peptide SEQ ID NO. 1 from sTNFR1, 20 point titration, 5-parameter fit based on Morrison equation (tight binding), read-out: TR-FRET Kd^app

Row | SMILES | pIC50 [1] | pKd [2, 3] | pIC50 ([2]; displacement of biotinylated peptide SEQ ID NO. 1 from sTNFR1, weaker binders, 10 pts titration, 4-parameter logistic model, read-out: TR-FRET, IC50) | pKd [2]
1 | CCCC[C@@H]1NC(=O)[C@@H]2CC[C@@H](C2)NC(=O)[C@H]([C@@H](C)c2c[nH]c3c(OC)cccc23)NC(=O)CN(C)C(=O)[C@H](Cc2ccc(C(N)=O)cc2)NC(=O)[C@H](Cc2ccc(C(N)=O)cc2)NC(=O)[C@](C)(CO)NC(=O)[C@H](Cc2c[nH]c3c(Cl)cccc23)NC(=O)[C@H](Cc2ccc(C(=O)O)cc2)NC(=O)[C@H](CC(N)=O)NC(=O)[C@H]2C[C@H](O)CN2C(=O)[C@H](Cc2c[nH]c3ccccc23)NC(=O)[C@@H]2CC[C@@H](O)CN2C(=O)[C@H](Cc2ccncc2)NC1=O [SEQ ID NO. 196] (cyclo([4Pal][Pip(5R-OH)]W[dHyp]N[Phe(4-COOH)][Trp(7-Cl)][αMeS][Phe(4-CONH2)][Phe(4-CONH2)][Sar][Trp(βS-Me,7-OMe)][X1][Nle])) | 9.22 | 10.05 | – | –
2 | C[C@@H](c1c[nH]c2ccccc12)[C@@H]1NC(=O)CN(C)C(=O)[C@H](Cc2ccc(CN)cc2)NC(=O)[C@H](Cc2ccc(C(=O)O)cc2)NC(=O)[C@](C)(CO)NC(=O)[C@H](Cc2ccc3ccccc3c2)NC(=O)[C@H](Cc2ccc(CN)cc2)NC(=O)[C@H](CC(N)=O)NC(=O)[C@H]2CCCN2C(=O)[C@H]([C@@H](C)c2c[nH]c3ccccc23)NC(=O)[C@H](CO)NC(=O)[C@H](Cc2ccc(CN)cc2)NC(=O)[C@H](CCCNC(N)=O)NC(=O)CSC[C@@H](C(N)=O)NC1=O [SEQ ID NO. 206] ({CH2CO}-[Cit][Phe(4-CH2NH2)]S[Trp(βS-Me)][dP]N[Phe(4-CH2NH2)][2Nal][αMeS][Phe(4-COOH)][Phe(4-CH2NH2)][Sar][Trp(βS-Me)]C-NH2; thioether N-14) | 6.57 | – | 7.59 | –
3 | CCCC[C@@H]1NC(=O)[C@@H]2CC[C@@H](C2)NC(=O)[C@H]([C@@H](C)c2c[nH]c3c(OC)cccc23)NC(=O)CN(C)C(=O)[C@H](Cc2cccc(C(N)=O)c2)NC(=O)[C@H](Cc2ccc(C(=O)O)cc2)NC(=O)[C@](C)(CO)NC(=O)[C@H](Cc2c[nH]c3c(Cl)cccc23)NC(=O)[C@H](Cc2ccncc2)NC(=O)[C@H](CC(N)=O)NC(=O)[C@H](CCC(=O)O)N(C)C(=O)[C@H](Cc2c[nH]c3ccccc23)NC(=O)[C@@H]2CCCCN2C(=O)[C@H](Cc2ccncc2)NC1=O [SEQ ID NO. 221] (cyclo([4Pal][Pip]W[NMeE]N[4Pal][Trp(7-Cl)][αMeS][Phe(4-COOH)][Phe(3-CONH2)][Sar][Trp(βS-Me,7-OMe)][X1][Nle])) | 9.00 | 9.51 | – | –
4 | CCCC[C@@H]1NC(=O)[C@@H]2CC[C@@H](C2)NC(=O)[C@H]([C@@H](C)c2c[nH]c3c(OC)cccc23)NC(=O)CN(C)C(=O)[C@H](Cc2ccc(C(N)=O)cc2)NC(=O)[C@H](Cc2ccc(C(N)=O)cc2)NC(=O)[C@](C)(CO)NC(=O)[C@H](Cc2c[nH]c3c(C#N)cccc23)NC(=O)[C@H](Cc2ccc(C(=O)O)cc2)NC(=O)[C@H](CC(N)=O)NC(=O)[C@H]2C[C@H](O)CN2C(=O)[C@H](Cc2c[nH]c3ncccc23)NC(=O)[C@@H]2CC[C@@H](O)CN2C(=O)[C@H](Cc2ccncc2)NC1=O [SEQ ID NO. 254] (cyclo([4Pal][Pip(5R-OH)][Trp(7-aza)][dHyp]N[Phe(4-COOH)][Trp(7-CN)][αMeS][Phe(4-CONH2)][Phe(4-CONH2)][Sar][Trp(βS-Me,7-OMe)][X1][Nle])) | 9.40 | 10.22 | – | –
5 | CCCC[C@@H]1NC(=O)[C@@H]2CC[C@@H](C2)NC(=O)[C@H]([C@@H](C)c2c[nH]c3c(OC)cccc23)NC(=O)CN(C)C(=O)[C@H](Cc2ccc(CN)cc2)NC(=O)[C@H](Cc2ccc(C(=O)O)cc2)NC(=O)[C@](C)(CO)NC(=O)[C@H](Cc2c[nH]c3c(Cl)cccc23)NC(=O)[C@H](Cc2ccncc2)NC(=O)[C@H](CC(N)=O)NC(=O)[C@H](CCC(=O)O)N(C)C(=O)[C@H](Cc2c[nH]c3ccccc23)NC(=O)[C@@H]2CNCCN2C(=O)[C@H](Cc2ccncc2)NC1=O [SEQ ID NO. 269] (cyclo([4Pal][Trp(7-Cl)][αMeS][Phe(4-COOH)][Phe(4-CH2NH2)][Sar][Trp(βS-Me,7-OMe)][X1][Nle][4Pal][Pip(4-aza)]W[NMeE]N)) | 9.00 | – | – | 10.10
